Key:
[1] = tested on: IL-17A-induced G-CSF production in human normal keratinocyte (NHK); experiment: NHK assay: IL-17A-induced G-CSF production in normal human keratinocytes; type: cell-based; settings: IL-17A 5 ng/mL, 24 h, average if tested more than once
In short: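 Compound titrations are first mixed with recombinant human IL-17A for 1 h at room temperature. The mixture goes onto adult normal human keratinocytes (final IL-17A 5 ng/mL, 5% FBS, 0.2% DMSO) for 24 h at 37 °C. Secreted G-CSF is then measured by HTRF and IC50 fitted.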

IL-17A : IL-17RA binding = target: T1, IL-17A : IL-17RA binding (Homo sapiens, UniProt Q16552, K93Q); experiment: IL-17A(FLAG-tagged):IL-17RA(His-tagged) binding disruption Eu-HTRF assay, Protocol 1; settings: FLAG-IL-17A 2.5 nM at 2x final concentration; average if tested more than once
T1 construct: Name: IL-17A-Flag
T1 sequence (Q16552 with tags, fused parts or gaps K93Q): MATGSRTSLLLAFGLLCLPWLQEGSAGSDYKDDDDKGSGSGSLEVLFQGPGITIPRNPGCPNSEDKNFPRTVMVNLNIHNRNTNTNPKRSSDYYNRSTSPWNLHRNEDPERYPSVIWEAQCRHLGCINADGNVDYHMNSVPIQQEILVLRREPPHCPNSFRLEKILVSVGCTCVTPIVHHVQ
In short: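 IC50 came from a one-site competition fit of the acceptor/donor (665/620 nm) HTRF ratio. His-tagged IL-17RA, Eu-anti-FLAG and D2-anti-His were added after a 1 h rt compound preincubation with FLAG-tagged IL-17A dimer in PBS/0.01% Triton X-100, followed by 2 h at rt before reading.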

Structure (SMILES) | IC50 (IL-17A : IL-17RA binding) | IC50 [1] | IC50 ([1]; Homo sapiens, Keratinocyte)
C[C@@H](NC(=O)CCC(F)(F)F)c1ccc2[nH]c([C@@H](NC(=O)c3nn(CC4CCC4)cc3C#N)C3CCC(F)(F)CC3)nc2c1 [Example 91, 4-Cyano-1-(cyclobutylmethyl)-N—((S)-(4,4-difluorocyclohexyl)(5-((R)-1-(4,4,4-trifluorobutanamido)ethyl)-1H-benzo[d]imidazol-2-yl)methyl)-1H-pyrazole-3-carboxamide] | > 0.1 µM | – | > 0.1 µM
C[C@@H](NC(=O)CCC(F)(F)F)c1ccc2[nH]c([C@@H](NC(=O)c3cn(CC45CC(C#N)(C4)C5)nn3)C3CCC(F)(F)CC3)nc2c1 [Example 79, 1-((3-Cyanobicyclo[1.1.1]pentan-1-yl)methyl)-N—((S)-(4,4-difluorocyclohexyl)(5-((R)-1-(4,4,4-trifluorobutanamido)ethyl)-1H-benzo[d]imidazol-2-yl)methyl)-1H-1,2,3-triazole-4-carboxamide] | > 0.1 µM | – | > 0.1 µM
C[C@@H](NC(=O)CC(C)(C)C)c1ccc2[nH]c([C@@H](NC(=O)c3ccnn3C)C3CCC(F)(F)CC3)nc2c1 [Example 117, N—((S)-(4,4-Difluorocyclohexyl)(5-((R)-1-(3,3-dimethylbutanamido)ethyl)-1H-benzo[d]imidazol-2-yl)methyl)-1-methyl-1H-pyrazole-5-carboxamide] | > 0.1 µM | – | > 0.1 µM
C[C@@H](NC(=O)CCC(F)(F)F)c1ccc2[nH]c([C@@H](NC(=O)c3cnc4n3CCC4)C3CCC(F)(F)CC3)nc2c1 [Example 211, N—((S)-(4,4-Difluorocyclohexyl)(5-((R)-1-(4,4,4-trifluorobutanamido)ethyl)-1H-benzo[d]imidazol-2-yl)methyl)-6,7-dihydro-5H-pyrrolo[1,2-a]imidazole-3-carboxamide] | > 0.1 µM | – | > 0.1 µM
C[C@@H](NC(=O)CCC(F)(F)F)c1ccc2[nH]c([C@@H](NC(=O)c3cnn(C)c3CCC(F)(F)F)C3CCC(F)(F)CC3)nc2c1 [Example 6, N—[(S)-(4,4-Difluorocyclohexyl)-[6-[(1R)-1-(4,4,4-trifluorobutanoylamino)ethyl]-1H-benzimidazol-2-yl]methyl]-1-methyl-5-(3,3,3-trifluoropropyl)pyrazole-4-carboxamide] | > 0.1 µM | – | > 0.1 µM
CC(C)n1cnc(C(=O)N[C@H](c2nc3cc([C@@H](C)NC(=O)CCC(F)(F)F)ccc3[nH]2)C2CCC(F)(F)CC2)n1 [Example 39, N—[(S)-(4,4-Difluorocyclohexyl)-[6-[(1R)-1-(4,4,4-trifluorobutanoylamino)ethyl]-1H-benzimidazol-2-yl]methyl]-1-isopropyl-1,2,4-triazole-3-carboxamide] | > 0.1 µM | – | > 0.1 µM
C[C@@H](NC(=O)CCC(F)(F)F)c1ccc2[nH]c([C@@H](NC(=O)c3cnnn3CCC3CC3)C3CCC(F)(F)CC3)nc2c1 [Example 13, 3-(2-Cyclopropylethyl)-N—[(S)-(4,4-difluorocyclohexyl)-[6-[(1R)-1-(4,4,4-trifluorobutanoylamino)ethyl]-1H-benzimidazol-2-yl]methyl]triazole-4-carboxamide] | > 0.1 µM | – | > 0.1 µM
C[C@@H](NC(=O)CCC(F)(F)F)c1ccc2[nH]c([C@@H](NC(=O)c3cncn3CCC(F)(F)F)C3CCC(F)(F)CC3)nc2c1 [Example 216, N—((S)-(4,4-Difluorocyclohexyl)(5-((R)-1-(4,4,4-trifluorobutanamido)ethyl)-1H-benzo[d]imidazol-2-yl)methyl)-1-(3,3,3-trifluoropropyl)-1H-imidazole-5-carboxamide] | > 0.1 µM | – | > 0.1 µM
CC(Cn1nncc1C(=O)N[C@H](c1nc2ccc([C@@H](C)NC(=O)CCC(F)(F)F)cc2[nH]1)C1CCC(F)(F)CC1)C(F)(F)F (single isomer, unassigned) [Example 71, N—((S)-(4,4-Difluorocyclohexyl)(6-((R)-1-(4,4,4-trifluorobutanamido)ethyl)-1H-benzo[d]imidazol-2-yl)methyl)-1-((R*)-3,3,3-trifluoro-2-methylpropyl)-1H-1,2,3-triazole-5-carboxamide] | > 0.1 µM | – | > 0.1 µM
C[C@@H](NC(=O)CC1CC(F)(F)C1)c1ccc2[nH]c([C@@H](NC(=O)c3ccnn3C)C3CCC(F)(F)CC3)nc2c1 [Example 119, N—((S)-(5-((R)-1-(2-(3,3-Difluorocyclobutyl)acetamido)ethyl)-1H-benzo[d]imidazol-2-yl)(4,4-difluorocyclohexyl)methyl)-1-methyl-1H-pyrazole-5-carboxamide] | > 0.1 µM | – | < 0.05 µM
C[C@@H](NC(=O)CCC(F)(F)F)c1ccc2[nH]c([C@@H](NC(=O)c3ncnn3C)C3CCC(F)(F)CC3)nc2c1 [Example 31, N—[(S)-(4,4-Difluorocyclohexyl)-[6-[(1R)-1-(4,4,4-trifluorobutanoylamino)ethyl]-1H-benzimidazol-2-yl]methyl]-2-methyl-1,2,4-triazole-3-carboxamide] | > 0.1 µM | – | > 0.1 µM
C[C@@H](NC(=O)CCC(F)(F)F)c1ccc2[nH]c([C@@H](NC(=O)c3cnn(CCOC(F)(F)F)n3)C3CCC(F)(F)CC3)nc2c1 [Example 35, N—[(S)-(4,4-Difluorocyclohexyl)-[6-[(1R)-1-(4,4,4-trifluorobutanoylamino)ethyl]-1H-benzimidazol-2-yl]methyl]-2-[2-(trifluoromethoxy)ethyl]triazole-4-carboxamide] | > 0.1 µM | – | > 0.1 µM

More lines, main results first:

IC50 (IL-17A : IL-17RA binding) | Structure (SMILES) | IC50 [1] | IC50 ([1]; Homo sapiens, Keratinocyte)
0.05 to 0.1 µM | Cc1nonc1C(=O)N[C@H](c1nc2cc([C@H](NC(=O)CC(C)C(F)(F)F)C3CC3)ccc2[nH]1)[C@@H]1CCCC(F)(F)C1 (single isomer, unassigned) [Example 259, N—((S)-(5-((R)-Cyclopropyl((S*)-4,4,4-trifluoro-3-methylbutanamido)methyl)-1H-benzo[d]imidazol-2-yl)((R)-3,3-difluorocyclohexyl)methyl)-4-methyl-1,2,5-oxadiazole-3-carboxamide] | 0.05 to 0.1 µM | –
> 0.1 µM | CC(C)n1nccc1C(=O)N[C@H](c1nc2cc([C@@H](NC(=O)CC3CC(F)(F)C3)C3CC3)ccc2[nH]1)C1CCC(F)(F)CC1 [Example 146, N—((S)-(5-((S)-Cyclopropyl(2-(3,3-difluorocyclobutyl)acetamido)methyl)-1H-benzo[d]imidazol-2-yl)(4,4-difluorocyclohexyl)methyl)-1-isopropyl-1H-pyrazole-5-carboxamide] | – | > 0.1 µM
< 0.05 µM | Cc1nonc1C(=O)N[C@@H](CC(C)(C)C(F)F)c1nc2ccc([C@H](NC(=O)CC3CC(F)(F)C3)C3CC3)cc2[nH]1 [Example 233, N—((S)-1-(6-((R)-Cyclopropyl(2-(3,3-difluorocyclobutyl)acetamido)methyl)-1H-benzo[d]imidazol-2-yl)-4,4-difluoro-3,3-dimethylbutyl)-4-methyl-1,2,5-oxadiazole-3-carboxamide] | – | > 0.1 µM
> 0.1 µM | Cc1n[nH]cc1C(=O)N[C@H](c1nc2cc([C@@H](C)NC(=O)CCC(F)(F)F)ccc2[nH]1)C1CCC(F)(F)CC1 [Example 25, N—[(S)-(4,4-Difluorocyclohexyl)-[6-[(1R)-1-(4,4,4-trifluorobutanoylamino)ethyl]-1H-benzimidazol-2-yl]methyl]-3-methyl-1H-pyrazole-4-carboxamide] | – | > 0.1 µM
> 0.1 µM | CCCC(NC(=O)CCC(F)(F)F)c1ccc2[nH]c([C@@H](NC(=O)c3ccnn3C)C3CCC(F)(F)CC3)nc2c1 (single isomer, unassigned) [Example 50, N—((S)-(4,4-Difluorocyclohexyl)(5-((S*)-1-(4,4,4-trifluorobutanamido)butyl)-1H-benzo[d]imidazol-2-yl)methyl)-1-methyl-1H-pyrazole-5-carboxamide] | – | > 0.1 µM
> 0.1 µM | CC(C)C(NC(=O)CCC(F)(F)F)c1ccc2[nH]c([C@@H](NC(=O)c3ccnn3C)C3CCC(F)(F)CC3)nc2c1 (single isomer, unassigned) [Example 45, N—((S)-(4,4-Difluorocyclohexyl)(5-((R*)-2-methyl-1-(4,4,4-trifluorobutanamido)propyl)-1H-benzo[d]imidazol-2-yl)methyl)-1-methyl-1H-pyrazole-5-carboxamide] | 0.05 to 0.1 µM | –
0.05 to 0.1 µM | C[C@@H](NC(=O)CCC(F)(F)F)c1ccc2[nH]c([C@@H](NC(=O)c3conc3C3CC3)C3CCC(F)(F)CC3)nc2c1 [Example 209, 3-Cyclopropyl-N—((S)-(4,4-difluorocyclohexyl)(5-((R)-1-(4,4,4-trifluorobutanamido)ethyl)-1H-benzo[d]imidazol-2-yl)methyl)isoxazole-4-carboxamide] | – | < 0.05 µM
< 0.05 µM | CC(C)c1ccsc1C(=O)N[C@H](c1nc2cc([C@@H](C)NC(=O)CCC(F)(F)F)ccc2[nH]1)C1CCC(F)(F)CC1 [Example 205, N—((S)-(4,4-Difluorocyclohexyl)(5-((R)-1-(4,4,4-trifluorobutanamido)ethyl)-1H-benzo[d]imidazol-2-yl)methyl)-3-isopropylthiophene-2-carboxamide] | – | 0.05 to 0.1 µM
< 0.05 µM | Cc1nonc1C(=O)N[C@H](c1nc2ccc([C@H](NC(=O)CC3CC(F)(F)C3)C3CC3)cc2[nH]1)[C@H]1CCCC(F)(F)C1 [Example 247, N—((S)-(6-((R)-Cyclopropyl(2-(3,3-difluorocyclobutyl)acetamido)methyl)-1H-benzo[d]imidazol-2-yl)((S)-3,3-difluorocyclohexyl)methyl)-4-methyl-1,2,5-oxadiazole-3-carboxamide] | – | < 0.05 µM

From patent US20240376085A1 (Janssen Pharmaceutica NV, priority 2021, published 2024)
